Measured values: PMC12679848, “Sulphonamide derivatives with a triazine core as novel inducers of apoptosis and pyroptosis in glioblastoma multiforme cells” (Journal of Enzyme Inhibition and Medicinal Chemistry, 2025)

Columns and labels:
A172 [1] = assay: MTT assay, A172; assay type: cell-based; details: Homo sapiens, A 172; A172, 24 h of incubation; read-out: IC50 values ± SEM, MTT assay
Experimental: Human glioblastoma cell lines (A172 CRL-1620™, U-87 MG HTB-14™, U-118 MG HTB-15™, T98G CRL-1690™) and the mouse astrocyte cell line (C8-D1A CRL-2541™) were obtained from the American Type Culture Collection (ATCC, Manassas, VA, USA). The cell lines were cultured in complete medium: DMEM (Corning, Kennebunk, ME, USA) for C8-D1A and T98G, and EMEM (ATCC, Manassas, VA, USA) for A172, U-87 MG, U118MG. The media were supplemented with 10% foetal bovine serum (Eurx, Gdansk, Poland) and 1% penicillin-streptomycin solution (Corning, Kennebunk, ME, USA). Cells were cultured in cell culture flasks (Sarstedt, Numbrecht, Germany) at 37 °C in 5% CO2. For experiments, cells were washed with phosphate-buffered saline without calcium and magnesium (Corning, Kennebunk, ME, USA) and treated with 0.05% trypsin and 0.02% EDTA (Corning, Kennebunk, ME, USA). Cells were counted using a Sceptre 3.0 cell counter (Merck Millipore, Burlington, MA, USA) prior to seeding into plates. For 6-well plates, 5 x 10^5 cells/mL were seeded, while for 96-well plates (Sarstedt, Numbrecht, Germany), 1 x 10^5 cells/mL were seeded in 100 μL of the medium.
The cell lines were seeded in 96-well plates and cultured according to the methodology described in the previous section. Cells were then treated with the novel derivatives MM118 and MM119 and the reference compound temozolomide (TMZ) (Sigma-Aldrich, St. Louis, MO, USA) at concentrations of 0.1, 0.25, 0.5, 1.0, 2.5, 5.0, and 10.0 μM for 24 h. The MTT assay was performed using a solution of 3–(4,5-dimethyl-2-thiazolyl)-2,5-diphenyl-2H-tetrazolium bromide (Sigma-Aldrich, St. Louis, MO, USA) at a concentration of 5 mg/mL in phosphate-buffered saline without calcium and magnesium (Corning, Kennebunk, ME, USA). After 24 h incubation with test compounds, 10 μL MTT solution was added to each well, and cells were incubated for another 2 h at 37 °C. The cells were then lysed in 100 μL lysis buffer (25 mM HCl, 2% acetic acid, 3% DMF, and 5% SDS, adjusted to pH 4.7). Absorbance was measured at 570 nm using an Absorbance 96 microplate reader (Byonoy GmbH, Hamburg, Germany).

A172 [2] = assay: LDH release assay, A172; assay type: cell-based, human; details: A172, 1.5 μM, 24 h
Experimental: (§1) Analogous to the procedure described in the previous section, A172 and U-87 MG cells were cultured and plated in 96-well plates. The LDH-Cytotoxicity Assay Kit II (ab65393) (Abcam, Cambridge, UK) was used to assess cytotoxicity according to the manufacturer’s protocol. The test compounds MM118 and MM119 and the reference compound temozolomide (TMZ) were added to the cells at a concentration of 1.5 μM. After 24 h of exposure, the medium was collected, centrifuged and 10 μL of each sample was transferred to a new 96-well plate. In the next step, 100 μL of LDH Reaction Mix was added to each well and incubated for 30 min at room temperature. Absorbance was measured at 450 nm using an Absorbance 96 microplate reader (Byonoy GmbH, Hamburg, Germany). Cytotoxicity was calculated according to the formula provided by the manufacturer: Cytotoxicity (%) = ((Test Sample – Low Control)/(High Control – Low Control)) X 100, where Low Control - control without added compound, High Control with added 10 µL Lysis Buffer II.

U-87 MG [3] = assay: LDH release assay, U-87 MG; assay type: cell-based, human; details: 1.5 μM, 24 h
Experimental: as §1

[4] = Annexin V-FITC/PI apoptosis analysis, U-87 MG; assay type: cell-based, human; details: human, U-87 MG cells, read-out: Viable cells
Experimental: (§2) The level of apoptosis induction of the newly synthesised compounds MM118 and MM119 was determined using double staining with Annexin V-FITC and propidium iodide (AV/PI). This method enables the differentiation of four cell populations based on their state: viable cells, necrotic cells, cells in early apoptosis, and late apoptosis. The compounds were analysed on A172 and U-87 MG human glioblastoma multiforme cell lines using concentrations of 1 μM and 1.5 μM over a 24-h exposure period.
(§3) The impact of apoptosis induction by the tested compounds at concentrations of 1 μM and 1.5 μM, as well as by temozolomide at 1.5 μM, was evaluated through annexin V-FITC and propidium iodide (PI) staining with the Apoptosis Detection Kit II (BD Biosciences, San Diego, CA, USA). The glioblastoma cell lines A172 and U-87 MG were then deprived of medium and washed several times with cold phosphate-buffered saline (PBS) solution. The cell suspension was then prepared in the binding buffer provided in the kit at a concentration of 1 × 10^6 cells/mL. From each sample, 100 μL of the cell suspension was transferred to tubes and subsequently treated with 5 μL of Annexin V-FITC and 5 μL of propidium iodide (PI). The tubes were then incubated for 15 min at room temperature in the dark. Following the incubation period, 400 μL of binding buffer was added to each sample, after which the samples were immediately analysed using a BD FACSCanto II flow cytometer (Becton Dickinson Biosciences, San Jose, CA, USA), with 10,000 events recorded per sample. The results were then analysed using FACSDiva Software Version 6.1.3 (BD Biosciences Systems, San Jose, CA, USA).

U-87 MG [5] = assay: Annexin V-FITC/PI apoptosis analysis, U-87 MG; assay type: cell-based, human; details: 1.5 μM, 24 h
Experimental: as §2, §3

caspase 3/7 [6] = assay: Caspase 3/7 activation (FAM FLICA), A172; assay type: cell-based, human; details: A172, 1.5 μM, 24 h
Experimental: (§4) The activity of caspase 1, caspase 3/7, caspase 8, and caspase 9 was evaluated through the utilisation of FAM FLICA Caspase Assays (ImmunoChemistry Technologies, Bloomington, MN, USA), in accordance with the established protocols. Following treatment with the compounds, the cells were collected at a concentration of 1 × 10^6 cells/mL, washed twice with cold PBS, and resuspended in 290 μL of PBS. The subsequent step involved the addition of 10 μL of 30X FLICA solution, followed by incubation at 37 °C in the absence of light for one hour. Then, 2 ml of Apoptosis Wash Buffer was added, and the samples were washed twice. A 300 μL aliquot of each sample was transferred to a BD FACSCanto II flow cytometer (Becton Dickinson Biosciences, San Jose, CA, USA), where 10,000 events per sample were recorded. The resulting data was then analysed using FACSDiva software, version 6.1.3 (BD Biosciences Systems, San Jose, CA, USA).

caspase 3/7 [7] = assay: Caspase 3/7 activation (FAM FLICA), U-87 MG; assay type: cell-based, human; details: 1.5 μM, 24 h
Experimental: as §4

CCC(CO)NS(=O)(=O)c1ccc(-n2nc(C)c3nc4nnnn4nc32)cc1 (stereo in doubt) [MM119, N-(S)-(1-hydroxy-but-2-yl)-4-[7-methyl-5H-pyrazolo[4,3-e]tetrazolo[1,5-b][1]^,[2]^,[4]triazin-5-yl)]benzenesulfonamide]
IC50 (A172 [1]): 1240 ± 386 nM | LDH release, cytotoxicity (A172 [2]): 13.44 ± 2.87% | LDH release, cytotoxicity (U-87 MG [3]): 28.02 ± 5.27% | viability at 24 h, 1 µM [4]: 85.4% | viability at 24 h, 1.5 µM [4]: 50.5 ± 7.23% | Early apoptotic cells (U-87 MG [5]): 10.18 ± 4.45% | Late apoptotic cells (U-87 MG [5]): 37.40 ± 6.20% | Necrotic cells (U-87 MG [5]): 1.95 ± 1.42% | Active caspase 3/7 (cell population) (caspase 3/7 [6]): 25.60 ± 4.29% | Active caspase 3/7 (cell population) (caspase 3/7 [7]): 57.48 ± 19.68%

CCC(CO)NS(=O)(=O)c1ccc(-n2nc(C)c3nc4nnnn4nc32)cc1 (stereo in doubt) [MM118, N-(R)-(1-hydroxy-but-2-yl)-4-[7-methyl-5H-pyrazolo[4,3-e]tetrazolo[1,5-b][1]^,[2]^,[4]triazin-5-yl)]benzenesulfonamide]
IC50 (A172 [1]): 889 ± 243 nM | LDH release, cytotoxicity (A172 [2]): 16.59 ± 1.71% | LDH release, cytotoxicity (U-87 MG [3]): 24.27 ± 2.74% | viability at 24 h, 1 µM [4]: 76.2% | viability at 24 h, 1.5 µM [4]: 48.8 ± 3.9% | Early apoptotic cells (U-87 MG [5]): 10.28 ± 4.08% | Late apoptotic cells (U-87 MG [5]): 38.73 ± 4.09% | Necrotic cells (U-87 MG [5]): 2.30 ± 1.81% | Active caspase 3/7 (cell population) (caspase 3/7 [6]): 42.40 ± 12.59% | Active caspase 3/7 (cell population) (caspase 3/7 [7]): 60.08 ± 2.50%

Cn1nnc2c(C(N)=O)ncn2c1=O [TMZ, temozolomide, reference compound]
IC50 (A172 [1]): > 10000 nM | LDH release, cytotoxicity (A172 [2]): −0.61 ± 2.02% | LDH release, cytotoxicity (U-87 MG [3]): 1.18 ± 0.25% | viability at 24 h, 1.5 µM [4]: 93.4% | Early apoptotic cells (U-87 MG [5]): 3.40 ± 1.63% | Late apoptotic cells (U-87 MG [5]): 4.73 ± 0.64% | Necrotic cells (U-87 MG [5]): 0.25 ± 0.24% | Viable cells (U-87 MG [5]): 91.65 ± 1.58% | Active caspase 3/7 (cell population) (caspase 3/7 [6]): no significant differences | Active caspase 3/7 (cell population) (caspase 3/7 [7]): no significant differences
